Assays:
[1] = biological target: T1, BAX R134E (Homo sapiens, UniProt Q07812, R134E); experiment: 1H-15N HSQC NMR chemical shift perturbation; liposomal release inhibition; format: binding
T1 construct: full-length (1–192)

[2] = biological target: T2, BAX (Mus musculus, UniProt Q07813); experiment: CETSA, […] EO, TM lowered by […] °C; format: cell-based; details: read-out: CETSA, 10 μM EO, TM lowered by 9 °C
T2 construct: endogenous BAX in BAK KO mouse embryonic fibroblasts
T2 sequence (Q07813 whole entry): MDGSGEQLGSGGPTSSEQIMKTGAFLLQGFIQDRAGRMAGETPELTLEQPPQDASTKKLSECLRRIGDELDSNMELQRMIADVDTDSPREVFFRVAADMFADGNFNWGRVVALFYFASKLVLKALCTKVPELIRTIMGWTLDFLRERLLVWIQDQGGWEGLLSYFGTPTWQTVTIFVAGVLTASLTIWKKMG

T1 sequence (Q07812 whole entry R134E): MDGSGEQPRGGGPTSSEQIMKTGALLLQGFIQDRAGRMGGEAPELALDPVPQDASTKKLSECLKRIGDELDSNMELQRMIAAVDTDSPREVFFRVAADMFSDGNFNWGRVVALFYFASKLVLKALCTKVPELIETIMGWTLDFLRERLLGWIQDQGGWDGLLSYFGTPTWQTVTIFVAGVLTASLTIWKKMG

Tm decrease at 10 µM [2]: 9 °C
Compound: CC1=NN(c2ccc(C)c(C)c2)C(=O)/C1=N\Nc1cccc(-c2cccc(C(=O)O)c2)c1O [compound 2, Eltrombopag]
1H-15N HSQC NMR chemical shift perturbation; liposomal release inhibition [1]: BAX R134E in the presence of EO exhibited clustering of CSPs to the trigger site, albeit with reduced CSPs
